Laboratory results published in paper PMC6930649, “Four New Iridoid Metabolites Have Been Isolated from the Stems of Neonauclea reticulata (Havil.) Merr. with Anti-Inflammatory Activities on LPS-Induced RAW264.7 Cells” (Molecules, 2019).
≈ marks a conversion by molar mass, not a printed value.

What was measured:
[1] = Cell viability assay (MTT) in RAW264.7 cells; assay type: cell-based; conditions: mouse, RAW264.7 macrophage cells, 6.25-100 μg/mL, LPS 100 ng/mL, mean ± SD of three independent experiments
Protocol: (§1) RAW264.7 the mouse macrophages cell line (Bioresource Collection and Research Center (BCRC) Number: 60001) was obtained from Food Industry Research and Development Institute (Hsinchu, Taiwan). All of the cell lines were cultured in DMEM containing 10% (v:v) fetal bovine serum (FBS), penicillin and streptomycin (100 U/mL), 4 mM L-glutamine (100 U/mL). The cells were cultured in a humidified incubator under 5% CO2 at 37 °C. The RAW264.7 cells (5 × 10^5 cells per mL) were seeded into plates for 24 h before treatment.
(§2) The in-vitro cell viability activity of MeOH extracts, partition fractions and pure compounds were determined by the MTT assay. RAW264.7 cells (5 × 10^4/well) were seeded in 96-well plates and incubated for 24 h. The cells were treated with MeOH extracts and contain partition fractions in various concentrations (0, 62.5, 125, 250, 500 and 1000 μg/mL), compounds and positive control (0, 6.25, 12.5, 25, 50 and 100 μg/mL) in the presence or absence of LPS (100 ng/mL) for 24 h. After 24 h, the medium was replaced with a medium containing 0.5 mg/mL MTT solution and incubated at 37 °C for 4 h. After the end of the MTT reaction, we used 0.04 N HCl /isopropanol solution to dissolve the formazan crystals. The absorbance was measured at 570 nm using a microplate reader (Molecular Devices, LLC.). The cell viability was calculated and compared with the control group.

[2] = test system: NO production by LPS stimulated in RAW264.7 cells; test: Inhibition of NO production in LPS-stimulated RAW264.7 macrophages (Griess reagent); assay type: cell-based, mouse; conditions: LPS-stimulated RAW264.7 cells; for IC50: Mus musculus, read-out: IC50 (inhibition of nitric oxide production)
Protocol: as §1, §2
The supernatant collected from cell culture and mixed with an equal volume of Griess reagent (1% sulphanilamide, 0.1% naphthylethylenediamine dihydrochloride and 5% phosphoric acid) and the absorbance value was measured at 540 nm using an ELISA plate reader.
The IC50 values for NO production were presented as mean values ± SD (standard deviations) of at least three independent experiments. The statistical significance of the differences was evaluated using Student’s t-test using IBM SPSS v.20.0 (SPSS Inc., Chicago, IL, USA). The percentage of NO production and cell viability were compared using variance analysis with GraphPad Prism 7.0 (GraphPad Software Inc., San Diego, CA, USA).

[3] = pure compounds, 6.25-100 μg/mL, 24 h, mean ± SD of three independent experiments

Compound | CC50 at 24 h [1] [µg/mL] | IC50 [2, 3] [µg/mL] | IC50 fold less than indomethacin (positive control) ([2]; NO inhibition) [fold] | IC50 (inhibition of nitric oxide production) [2, 3] [µg/mL]
COC(=O)C(CO)C1CC(O)C(C)C1COC(=O)c1ccccc1 (stereo not drawn) [Compound 2, neonanin D] | > 100 | > 100 |  | 
COc1cc(C(=O)CCO)cc(OC)c1O [Compound 17, 3-hydroxy-1-(4-hydroxy 3,5-dimethoxyphenyl)-1-propanone] | > 100 | > 100 |  | 
COc1cc(C(=O)C(O)CO)ccc1O (stereo not drawn) [Compound 20, C-veratroylglycol] | > 100 | > 100 |  | 
COC(=O)C1=COC[C@@H]2[C@@H](C)[C@@H](O)C[C@H]12 [Compound 6, siphonostegiol] | > 100 | > 100 |  | 
C[C@@H]1[C@H]2COC(=O)C[C@H]2C[C@@H]1O [Compound 7, isoboonein] | > 100 | 86.3 ± 3.45 (≈ 507 µM) |  | 
COC(=O)c1ccc(O)c(O)c1 [Compound 19, protocatechuic acid methyl ester] | > 100 | > 100 |  | 
COc1ccc2c(c1)c(CC(=O)O)c(C)n2C(=O)c1ccc(Cl)cc1 [Indomethacin, indomethacin, reference compound] | > 100 | 46.7 ± 3.14 (≈ 131 µM) |  | 
C/C=C1/C(=O)OCC[C@H]1CCO [Compound 8, floribundane B] | > 100 | > 100 |  | 
COc1cc(/C=C/C(=O)O)ccc1O [Compound 18, ferulic acid] | > 100 | > 100 |  | 
COc1cc([C@H]2OC[C@H]3[C@@H]2CO[C@@H]3c2cc(OC)c(O)c(OC)c2)cc(OC)c1O [Compound 10, syringaresinol] | > 100 | 9.18 ± 1.9 (≈ 21.9 µM) | 5 | 
COc1cc([C@@H]2OC[C@@H]3[C@H]2CO[C@H]3c2cc(OC)c(O)c(OC)c2)ccc1O [Compound 12, (+)-medioresinol] | > 100 | 76.2 ± 2.42 (≈ 196 µM) |  | 
COC(=O)C1=CNC(=O)[C@@H]2[C@@H](C)[C@@H](O)C[C@H]12 [Compound 5, strychnovoline] | > 100 | > 100 |  | 
COc1cc(C(=O)O)cc(OC)c1O [Compound 16, syringic acid] | > 100 | > 100 |  | 
COC(=O)C1=COC(O)C2C1CC(OC1OC(=O)C3C(C)C(O)CC3C1C(=O)OC)C2C (stereo not drawn) [Compound 3, reticunin A] | > 100 | > 100 |  | 
COc1ccc(O)c(O)c1 [Compound 13, 4-methoxycatechol] | > 100 | > 100 |  | 
C[C@@H]1[C@H]2COC(=O)[C@@H](CO)[C@H]2C[C@@H]1O [Compound 9, alyxialactone] | > 100 | > 100 |  | 
(+)-pinoresinol [Compound 11] |  |  |  | >100
COC(=O)C1C(O)OC(=O)C2C(C)C(O)CC12 (stereo not drawn) [Compound 1, neonanin C] | > 100 | > 100 |  | 
COC(=O)C1COC(=O)C2C(C)C(OC3OC(=O)C4C(C)C(O)CC4C3C(=O)OC)CC12 (stereo not drawn) [Compound 4, reticunin B] | > 100 | > 100 |  | 
O=C(O)c1ccc(O)c(O)c1 [Compound 14, protocatechuic acid] | > 100 | 72.9 ± 4.97 (≈ 473 µM) |  | 
O=C(O)/C=C/c1ccc(O)c(O)c1 [Compound 15, trans-caffeic acid] | > 100 | 95.2 ± 1.2 (≈ 528 µM) |  | 
